# Data reported in publication PMC8842277, “Highly Antiproliferative Latonduine and Indolo[2,3-c]quinoline Derivatives: Complex Formation with Copper(II) Markedly Changes the Kinase Inhibitory Profile” (Journal of Medicinal Chemistry, 2022).
# Key:
# AMPK (hum) = experiment: Kinase panel screen; format: biochemical, human; details: 10 µM compound
# Excerpt: (§1) Figure 7 (see also Table S4) summarizes the results of this assay as a histogram plotting the percentage of the remaining enzyme activity (x-axis) as a function of added lead compound (HL^8: blue trace, 8: red trace) for each of the 50 enzymes assayed (y-axis). […] Thus, the coordination to copper(II) completely changes the kinase inhibition profile of HL^8.
# (§2) Figure 7 Screening of HL^8 and 8 against 50 enzymes: histogram with % remaining activity on the x-axis plotted against the compound identifier (blue trace: HL^8 and red trace: 8) and enzyme identifier on the […]. The screen was carried out at a compound concentration of 10 μM, an enzyme concentration of 50 nM, and an ATP concentration of 100 μM.
# All kinase assays were carried out using Multidrop 384’s at room temperature in a total assay volume of 25.5 μL. To plates containing 0.5 μL of HL^8 and 8, DMSO control or acid blank […], 15 μL of an enzyme mix containing enzyme […], and excess peptide/protein substrate in buffer was added. Compounds were pre-incubated in the presence of the enzyme and peptide/protein substrate for 5 min before initiation of the reaction by addition of 10 μL of ATP (final concentration selected for each kinase at 5, 20, or 50 μM). […] The dry Unifilter plates were then sealed on the addition of MicroScint O and were counted in PerkinElmer Topcount scintillation counters.
# RIPK2 = RIPK2 (Homo sapiens, UniProt O43353); experiment: Kinase panel screen; format: biochemical; details: 10 µM compound
# Excerpt: as §1, §2
# All kinase assays were carried out using Multidrop 384’s at room temperature in a total assay volume of 25.5 μL. To plates containing 0.5 μL of HL^8 and 8, DMSO control or acid blank […], 15 μL of an enzyme mix containing enzyme […], and excess peptide/protein substrate in buffer was added. Compounds were pre-incubated in the presence of the enzyme and peptide/protein substrate for 5 min before initiation of the reaction by addition of 10 μL of ATP (final concentration selected for each kinase at 5, 20, or 50 μM). Assays were carried out for 30 min at room temperature before termination by the addition of 5 μL of orthophosphoric acid. The assay plates were then harvested onto P81 Unifilter Plates by a PerkinElmer Harvester and air dried. The dry Unifilter plates were then sealed on the addition of MicroScint O and were counted in PerkinElmer Topcount scintillation counters.
# [1] = Thermodynamic solubility, UV–vis of saturated solutions
# Experimental: The concentration of the compounds was determined by UV–vis spectrophotometry using stock solutions of the compounds with a known concentration dissolved in pure DMSO and 50% (v/v) DMSO/buffered aqueous solution for the calibration.
# [2] = test system: HCT-116 isogenic p53-knock-out subline; experiment: MTT assay, 96 h; format: cell-based, human; details: read-out: IC50 HCT-116p53ko, mean
# Excerpt: The oncosuppressor protein p53 controls the cellular response to DNA strand breaks induced by cytotoxic drugs or by radiation.[58] The p53 protein may enhance cell chemosensitivity by promoting apoptosis via different mechanisms including activation of proapoptotic genes such as bax and repression of antiapoptotic genes such as bcl-2 or in contrast increase chemoresistance by promoting p21-mediated and p21-independent growth arrest and DNA repair and by activation of antiapoptotic genes such as bcl-x. There is strong evidence that the modulation of drug sensitivity by p53 may be both drug- and cell type-specific.[59] […] Accordingly, essential differences in chemosensitivity were observed between cells with wild-type p53 gene and cells with knocked out p53 gene by homologous recombination.[60]
# Human colonic adenocarcinoma cell lines Colo 205 doxorubicin-sensitive (ATCC-CCL-222) and Colo 320/MDR-LRP multidrug resistant over-expressing ABCB1 (MDR1)-LRP (ATCC-CCL-220.1) were purchased from LGC Promochem, Teddington, UK. The cells were cultured in an RPMI 1640 medium supplemented with 10% heat-inactivated fetal bovine serum, 2 mM L-glutamine, 1 mM Na-pyruvate, and 10 mM HEPES. The semi-adherent human colon cancer cells were detached with Trypsin-Versene (EDTA) solution for 5 min at 37 °C. An MRC-5 human embryonal lung fibroblast cell line (ATCC CCL-171) was purchased from LGC Promochem, Teddington, UK. The cells were cultured in Eagle’s minimal essential medium (EMEM, containing 4.5 g L^–1 glucose) supplemented with a non-essential amino acid mixture, a selection of vitamins, and 10% heat-inactivated fetal bovine serum. The HCT-116 colon carcinoma cells and isogenic p53-knock-out subline were a gift of Prof. Bert Vogelstein from The Johns Hopkins Oncology Center. Cells were cultured in McCoy’s 5A medium supplemented with 10% heat-inactivated fetal bovine serum and 4 mM L-glutamine. All cell lines were incubated at 37 °C, in a 5% CO2, 95% air atmosphere.
# MRC-5 non-cancerous human embryonic lung fibroblast and human colonic adeno-carcinoma cell lines (doxorubicin-sensitive Colo 205 and multidrug resistant Colo 320 colonic adenocarcinoma cells) were used to determine the effect of compounds on cell growth. The effects of increasing concentrations of compounds on cell growth were tested in 96-well flat-bottomed microtiter plates. The compounds were dissolved in DMSO and stock solutions of 10 mM were prepared. These were further diluted in the appropriate cell culture medium by twofold serial dilution starting from 100 or 10 μM for the compounds. The adherent human embryonal lung fibroblast cells were cultured in 96-well flat-bottomed microtiter plates using EMEM supplemented with 10% heat-inactivated fetal bovine serum. The density of the cells was adjusted to 1 × 10^4 cells in 100 μL per well, the cells were seeded for 24 h at 37 °C, 5% CO2, then the medium was removed from the plates containing the cells, and the dilutions of compounds previously made in a separate plate were added to the cells in 200 μL. In the case of the colonic adenocarcinoma cells, the twofold serial dilutions of compounds were prepared in 100 μL of RPMI 1640, horizontally. The semi-adherent colonic adenocarcinoma cells were treated with Trypsin-Versene (EDTA) solution. They were adjusted to a density of 1 × 10^4 cells in 100 μL of RPMI 1640 medium and were added to each well, with the exception of the medium control wells. […]
# Sequence of RIPK2 (O43353 whole entry): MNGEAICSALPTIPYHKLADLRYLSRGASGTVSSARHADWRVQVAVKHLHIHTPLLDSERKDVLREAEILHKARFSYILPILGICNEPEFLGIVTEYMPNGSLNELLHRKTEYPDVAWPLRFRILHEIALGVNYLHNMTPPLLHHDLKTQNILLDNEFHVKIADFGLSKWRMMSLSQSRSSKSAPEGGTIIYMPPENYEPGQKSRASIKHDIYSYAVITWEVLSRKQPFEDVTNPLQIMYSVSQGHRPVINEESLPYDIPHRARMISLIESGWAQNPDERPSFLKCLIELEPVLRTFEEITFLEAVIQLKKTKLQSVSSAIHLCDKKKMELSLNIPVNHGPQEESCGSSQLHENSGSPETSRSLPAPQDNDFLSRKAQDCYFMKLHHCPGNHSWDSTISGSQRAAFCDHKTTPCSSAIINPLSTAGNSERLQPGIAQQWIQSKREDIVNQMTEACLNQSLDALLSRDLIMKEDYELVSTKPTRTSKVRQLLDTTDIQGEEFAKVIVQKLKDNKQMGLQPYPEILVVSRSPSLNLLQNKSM
smiles,measurement,setting,value
"CC(=NNc1nc2ccccc2c2c1[nH]c1ccc(Br)cc12)c1ccc(CN2CCOCC2)cn1.[Cl][Cu][Cl] [compound 8, CuCl2(HL^8)·H2O]",% remaining activity,AMPK (hum),91%
same,% remaining activity,RIPK2,95%
same,Thermodynamic solubility (S),[1]; pH 5,34.3 µM
same,Thermodynamic solubility (S),[1]; pH 7.4,10.4 µM
same,IC50,[2],41 nM
